According to paper PMC8179271, “Identification of β-strand mediated protein–protein interaction inhibitors using ligand-directed fragment ligation” (Chemical Science, 2021):
Read-outs that look alike come from different tables or passages of the source. Residues, ends and D or L forms follow the SMILES beside them. *: point of attachment. FITC = O=C1OC2(c3ccc(O)cc3Oc3cc(O)ccc32)c2ccc(NC(=S)*)cc21; Ahx = NCCCCCC(=O)O

What was measured:
Assay type in all cases: binding
[1] = biological target: T1, SHANK1 PDZ (Homo sapiens, UniProt Q9Y566); assay: Isothermal titration calorimetry (ITC); details: for Kd / n (ITC stoichiometry) / ΔH / ΔS: 25 mM Tris pH 7.5, 150 mM NaCl, 25 °C
T1 construct: Human Shank1 PDZ domain (656-762) was cloned into the pGEX-6P-2 expression vector; GST (N, cleaved yes); made in house; host or cells: E. coli BL21 Gold
T1 sequence (Q9Y566 656-762): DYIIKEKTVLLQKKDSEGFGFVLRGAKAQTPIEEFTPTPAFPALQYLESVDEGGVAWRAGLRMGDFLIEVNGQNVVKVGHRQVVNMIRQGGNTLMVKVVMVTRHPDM
Experimental: Fitted thermograms and thermodynamic signatures for the tested peptides and hydrazones. […] For individual raw ITC data and fitted thermograms see Fig. S14. ^† […]
Figure S14. Raw ITC data (top) and fitted thermograms (bottom) for the tested hydrazone hits and […]
0.75-1 mM peptide or hydrazone solution to 75-150 µM protein.
(1 picture or pasted object on this page, not shown here)
2.5. Isothermal tritration calorimetry
ITC experiments were carried out using Microcal ITC200i instrument (Malvern) at 25°C […]
Shank1 PDZ was dialysed against the buffer prior to experiment, lyophilized peptides and hydrazones were dissolved in the same buffer. 75 or […]
depending on compound solubility, from the syringe using 2 µL injections with 120 s spacing between the injections for 20 injection. Heats of peptide dilution w ere measured by titrating the peptide into buffer and subtracted from each measurement. Dat a was analysed using Microcal Origin 8 and fitt ed to a one-binding site model. […]

[2] = biological target: T1, SHANK1 PDZ; assay: Fluorescence anisotropy competition assay (FITC-Ahx-TRL-COOH tracer); details: 50 mM NH4Ac pH 6.5, 10 mM aniline
Experimental: (d) FA competition curves for hybrids from the extended screen. All screening and validation assays were performed in 50 mM NH4Ac buffer, pH 6.5, 10 mM aniline using 1 μM final protein concentration and 10 nM FITC-Ahx-TRL-COOH as tracer at room temperature. […] Anisotropy is expressed relative to the control experiment where no competitor is present. Hit thresholds were defined based on the relative anisotropy of the (i) buffer control (rbuffer − 3σ) and (ii) the TRL control (rTRL − 3σ). Compounds below these thresholds are coloured blue and red respectively.
(0.22 µm membrane) and applied to glutathione beads and washed with 10 CV 20 mM Tris, pH 8, 500 mM NaCl. GST was cleaved on-column overnight at 4 °C using Prescission protease.
The eluted fractions were concentrated and purified by size-exclusion chromatography on S75 26/60 pg column in 20 mM Tris, 150 mM NaCl, 5% glycerol pH 7.5 buffer. Collected fractions were analysed by SDS-PAGE and concentrated. Pure protein was analysed by high resolution […]
determined by UV-VIS spectroscopy using the 8480 M-1 cm-1 extinction coefficient. […]
2.3. Aldehyde library selection
A diverse subset of fragments was selected from commercially available small molecule aldehydes (AldrichCPR, Fluorochem and Acros). Available compounds having one aldehyde functionality were filtered first based on physicochemical properties: 80 Da < MW < 400 Da, HBA, HBD ≤ 3, and clogP ≤ 5. To select a diverse set of compounds , first, binary molecular fingerprint s were generated for each molecule using the FragFp descriptor implemented in DataWarrior (openmolecules.org) , which relies on a predefined substructure fragment library and is used to compare 2D structural similarities. Then, using the same software , structurall y dissimilar subset of compounds was selected based on the molecular fingerprints. Compounds were further excluded based on undesired functional groups and commerical availability , […]
carboxylic acid functional groups.
2.4. Fluorescence anisotropy
Fluorescence anisotropy assays were performed in 384-well plates (Greiner Bio-one) and the fluorescence anisotropy measured using a Perkin Elmer EnVisionTM 2103 MultiLabel plate reader, with excitation at 480 nm (30 nm bandwidth), polarised dichroic mirror at 505 nm and […]
°C. Fluorescence anisotropy data was processed as described previously.4 The data from both […]
the P (perpendicular intensity) and S (parallel intensity) channels, resulting from this measurement and corrected by subtracting the corresponding control wells, were used to calculate the intensity and anisotropy for each well following Equations 1 and 2: […]
r = anisotropy, I = total intensity, P = perpendicular intensity, S = parallel intensity, G is an […]
Assays were performed in 50 mM NH4Ac, 10 mM aniline, pH 6.5 buffer. Shank 1 PDZ was dialysed into the assay buffer prior to the experiment. […]

[3] = biological target: T2, PDZ domain of PSD-95 (PSD-95 PDZ1) (Homo sapiens, UniProt P78352); assay: 1H-15N HSQC chemical shift perturbation titration; details: Fig. S24
T2 construct: made in house
T2 sequence (P78352 with tags, fused parts or gaps): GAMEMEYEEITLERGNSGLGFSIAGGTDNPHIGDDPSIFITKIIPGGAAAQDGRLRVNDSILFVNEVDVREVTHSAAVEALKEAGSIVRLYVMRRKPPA
From the text: Since Class I PDZ domains bind to consensus sequences,[71,72] we set out to further assess the selectivity of the peptide-fragment hybrids against another Class I PDZ domain. We compared the ability to bind to SHANK1 PDZ against the ability to bind to the PDZ domain of PSD-95, a therapeutically important target in neuronal diseases and cancer.[58] We monitored the binding using chemical shift perturbations in the ^1H–^15N HSQC spectra of the PDZ domain of PSD-95 (Fig. S22, S23, Tables S7 and S8 ^†). […] However, PSD-95 also lacks the patch of cationic residues proximal to the C-terminal carboxylate binding site. Such a result provides confidence that the dynamic ligation screening approach used here can encode and retain selectivity.
PSD 95 PDZ1 amino acid sequence
Figure S22. Overlay of plots for 4-A047 with Ligand:protein ratio ranging from 1:1 to 100:1. The gradual change in chemical shifts of limited residues indicate that the binding of the ligand is specific and to the putative ligand binding site.
Figure S23. Mapping of chemical shift changes onto the structure of PSD95 PDZ1 using PDB Accession Code 2KA9 (cypin peptide in magenta). Residues whose chemical shifts are affected are coloured yellow; these residues line the binding site. […]
Table S7. Concentration dependent shift changes of compound 4-A047 for a few residues whose chemical shifts have been assigned […]

[4] = biological target: T1, SHANK1 PDZ; assay: Fluorescence anisotropy direct titration with FITC-labelled GKAP tracer
Experimental: A diversity-based selection was performed on commercially available aldehyde fragments obeying guidelines for fragment-based drug design,[75] resulting in a small library of 129 compounds (A001–A129, Table S1 and Fig. S1 ^†). […] To allow us to perform the hybrid formation and screening in the presence of the target protein in a single step, it was necessary to first establish that SHANK1 PDZ was still able to bind to its natural ligand under the same conditions.
Figure S2. Rate of hydrazone exchange in 50 mM ammonium-acetate (NH4Ac), pH 6.5, 10 mM aniline buffer using 100 µM compound 4-A001 and 5 equivalents of three different aldehydes (corresponding to R2 groups) at room temperature. Hydrazone exchange was monitored by LC -MS; peaks for extracted ion chromatograms were integrated and normalized . […]
Figure S3. Fluorescence anisotropy direct titration of S HANK1 PDZ in 50 mM NH4Ac, pH 6.5 10 mM aniline containing buffer using 50 nM FITC-Ahx-GKAP as tracer. Plate was read after 24 hr incubation […]
Assays were performed in 50 mM NH4Ac, 10 mM aniline, pH 6.5 buffer. […] Fluorescence anisotropy direct titration assays were performed with protein concentration diluted over 24 points using ½ dilutions. […]
final protein concentration. […] For control wells, the tracer peptide was replaced with an identical volume of assay buffer and plates were read immediately, and after an hour or after 24 hours . […]

[5] = Table S2, relative to core Ac-TRL-OH motif
[6] = 1 µM Shank1 PDZ, 10 nM FITC-Ahx-TRL-COOH, plates read immediately, room temperature, read-out: IC50 (Fig. S4, parent peptides and benzaldehyde hydrazones)
[7] = x-A001 incubated with 5 equiv aldehyde in presence of protein for 24 h, then 10 nM FITC-Ahx-TRL-COOH, SHANK1 PDZ 1 M, read-out: IC50 (Fig. S7-S9, S11, S12, hybrids selected for validation from single point screens)

| Compound | Kd [1] [µM] | IC50 [2, 7] [µM] | further results |
| --- | --- | --- | --- |
| CC(C)C[C@H](NC(=O)[C@H](CCCNC(=N)N)NC(=O)[C@@H](NC(=O)CCC(=O)NN=Cc1ccccc1)[C@@H](C)O)C(=O)O [3-A001] | 16 ± 3 | – | n (ITC stoichiometry) [1]: 1.04 ± 0.04; ΔH [1]: -2.32 ± 0.14 kcal/mol; ΔS [1]: 59.0 J mol^−1 K^−1; GE group efficiency (-ΔΔG/ΔNnH) [1, 5]: 0.07; ΔΔG (ΔGCompound-ΔGAc-TRL-OH) [1, 5]: -0.201 kcal/mol; IC50 [2, 6]: 51 ± 3 µM |
| CC(C)C[C@H](NC(=O)[C@H](CCCNC(=N)N)NC(=O)[C@@H](NC(=O)CCC(=O)N/N=C/c1ccccc1C(=O)O)[C@@H](C)O)C(=O)O [3-A047] | 8 ± 1 | 14 ± 1 | – |
| CC(C)C[C@H](NC(=O)[C@H](CCCNC(=N)N)NC(=O)[C@@H](NC(=O)CCC(=O)N/N=C/c1ccc(C(=O)O)cc1)[C@@H](C)O)C(=O)O [3-A048] | 10 ± 1 | 11 ± 1 | – |
| CC(C)C[C@H](NC(=O)[C@H](CCCNC(=N)N)NC(=O)[C@@H](NC(=O)CCC(=O)N/N=C/c1ccc(Cl)cc1C(=O)O)[C@@H](C)O)C(=O)O [3-A144] | 7.1 ± 0.9 | 9 ± 1.6 | – |
| CC(C)C[C@H](NC(=O)[C@H](CCCNC(=N)N)NC(=O)[C@@H](NC(=O)CCC(=O)N/N=C/c1cccc(OC(C(=O)O)c2ccccc2)c1)[C@@H](C)O)C(=O)O (stereo partly drawn) [3-A161] | 4.8 ± 0.4 | – | – |
| CC(C)C[C@H](NC(=O)[C@H](CCCNC(=N)N)NC(=O)[C@@H](NC(=O)CCCC(=O)NN=Cc1ccccc1)[C@@H](C)O)C(=O)O [4-A001] | 14.8 ± 0.8 | – | IC50 [2, 6]: 19 ± 3 µM |
| CC(C)C[C@H](NC(=O)[C@H](CCCNC(=N)N)NC(=O)[C@@H](NC(=O)CCCC(=O)N/N=C/c1ccccc1C(=O)O)[C@@H](C)O)C(=O)O [4-A047] | 4.6 ± 0.2 | 7.3 ± 0.6 | EC50 [3]: 2400 ± 300 µM |
| CC(C)C[C@H](NC(=O)[C@H](CCCNC(=N)N)NC(=O)[C@@H](NC(=O)CCCC(=O)N/N=C/c1ccc(C(=O)O)cc1)[C@@H](C)O)C(=O)O [4-A048] | 3.1 ± 0.2 | 7.5 ± 0.8 | – |
| CC(C)C[C@H](NC(=O)[C@H](CCCNC(=N)N)NC(=O)[C@@H](NC(=O)CCCC(=O)N/N=C/c1ccc(Cl)cc1C(=O)O)[C@@H](C)O)C(=O)O [4-A144] | 3.1 ± 0.2 | 3.7 ± 0.4 | – |
| CC(C)C[C@H](NC(=O)[C@H](CCCNC(=N)N)NC(=O)[C@@H](NC(=O)CCCC(=O)N/N=C/c1cccc(OC(C(=O)O)c2ccccc2)c1)[C@@H](C)O)C(=O)O (stereo partly drawn) [4-A161] | 1.54 ± 0.05 | – | – |
| CC(C)C[C@H](NC(=O)[C@H](CCCNC(=N)N)NC(=O)[C@@H](NC(=O)[C@H](CCC(N)=O)NC(=O)[C@H](C)NC(=O)[C@H](CCC(=O)O)NC(=O)CCCCCNC(=S)Nc1ccc2c(c1)C(=O)OC21c2ccc(O)cc2Oc2cc(O)ccc21)[C@@H](C)O)C(=O)O [FITC-Ahx-GKAP] ({FITC-Ahx}-EAQTRL-OH; C-terminus assumed) | – | – | Kd ([4]; 50 mM NH4Ac pH 6.5, 10 mM aniline, 50 nM tracer, read after 24 hr incubation at room temperature, read-out: KD (Fig. S3)): 0.96 ± 0.08 µM; Kd ([4]; KD (initial) of FITC labelled GKAP, pH 6.5, 10 mM aniline, did not significantly change over 24 hours): ~1 µM |
| Ac-EAQTRL-OH [GKAP, Ac-EAQTRL-COOH, reference compound] | – | – | n (ITC stoichiometry) [1]: 1.07 ± 0.01; ΔH [1]: -7.07 ± 0.096 kcal/mol; ΔS [1]: 9.7 J mol^−1 K^−1; ΔΔG (ΔGCompound-ΔGAc-TRL-OH) [1, 5]: -1.44 kcal/mol |
